Test results as given in PMC10064984, “Anti-cyclooxygenase, anti-glycation, and anti-skin aging effect of Dendrobium officinale flowers’ aqueous extract and its phytochemical validation in aging” (Frontiers in Immunology, 2023).
“And” between values parts separate entries of the source, which are not always exact repeats. Identical values can stand only once.

Assays:
Assay type in all cases: biochemical
[1] = Fluorescent AGEs formation in a BSA-fructose/glucose system; conditions: for inhibition of fluorescent AGEs formation (BSA-抗糖化), 平均 (mean): mean of 3
Method: Glycated protein was prepared in vitro by incubating BSA in the presence of D-glucose (GLC) and D-fructose (FRC). The DOF extract and specific standards were dissolved in DMSO:water (1:4). […] The assay was performed in triplicate, and AG was used as a positive control. The percentage inhibition of fluorescent AGE formation was calculated using the following equation: […] Where IF sample is fluorescence intensity in the presence of samples and BSA, IF sample control is fluorescence intensity in the presence of samples without BSA, IF control is fluorescence intensity without samples, and IF blank control is fluorescence intensity without samples and BSA.

[2] = FRAP total antioxidant capacity; conditions: for 标准曲线对应浓度 mM FeSO4 (FRAP, FeSO4 equivalent from standard curve): individual replicates; for 标准曲线对应浓度 mM FeSO4, mean: mean of 3;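 for all read-outs here: colourimetric FRAP kit assay read as absorbance in 96-well plates, values as mM FeSO4 via standard curve, EC1 being sample concentration matching 1.0 mmol/L FeSO4, Trolox positive control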
[3] = ABTS·+ decolourisation capacity
Method: Fast colourimetric methods were slightly modified for the in vitro assessment of DPPH· scavenging ([19]), ABTS·+ decolourisation capacity ([20]), and total antioxidant capacity of FRAP ([21]). The stock solutions of derivatisation reagents were diluted as follows before measurement: DPPH was diluted with absolute ethanol until the absorbance was 0.8 ± 0.05 at λ = 517 nm. ABTS working solution was prepared with phosphate buffer (0.2 M, pH 7.4) to display absorbance of 0.8 ± 0.05 at λ = 729 nm, based on a previous study ([22]). The FRAP solution was prepared according to the instructions of the FRAP kit. Absorbances were measured using an automatic microplate reader (Molecular Group Ltd., USA), and all analyses were performed using 96-well plates. All measurements were performed in triplicate, and Trolox was used as a positive control.
For ABTS·+ decolourisation capacity, 100 μl of ABTS working solution was mixed with 200 μl of sample solution, and the absorbance was recorded after 10 min at 729 nm. Phosphate buffer (0.2 M, pH 7.4) was used as a negative control.
DPPH· and ABTS·+ radical scavenging activities of the tested sample were both calculated using the following formula:
% inhibition = (A control − A sample)/A control × 100
Where A control and A sample represent the absorbance of the control and test samples, respectively. The IC50 was calculated graphically from the dose-inhibition curves.

DPPH· scavenging = assay: DPPH· scavenging;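 note: colourimetric DPPH radical scavenging in 96-well plates, absorbance read-out, percent inhibition relative to ethanol control absorbance, IC50 derived graphically from dose-inhibition curves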
COX-2 = biological target: T1, COX-2 (Homo sapiens, UniProt P35354); assay: Anti-COX-2 assay (COX-2 Inhibitor Screening Kit); conditions: single replicates
T1 construct: purchased Beyotime S0168
T1 sequence (P35354 18-604): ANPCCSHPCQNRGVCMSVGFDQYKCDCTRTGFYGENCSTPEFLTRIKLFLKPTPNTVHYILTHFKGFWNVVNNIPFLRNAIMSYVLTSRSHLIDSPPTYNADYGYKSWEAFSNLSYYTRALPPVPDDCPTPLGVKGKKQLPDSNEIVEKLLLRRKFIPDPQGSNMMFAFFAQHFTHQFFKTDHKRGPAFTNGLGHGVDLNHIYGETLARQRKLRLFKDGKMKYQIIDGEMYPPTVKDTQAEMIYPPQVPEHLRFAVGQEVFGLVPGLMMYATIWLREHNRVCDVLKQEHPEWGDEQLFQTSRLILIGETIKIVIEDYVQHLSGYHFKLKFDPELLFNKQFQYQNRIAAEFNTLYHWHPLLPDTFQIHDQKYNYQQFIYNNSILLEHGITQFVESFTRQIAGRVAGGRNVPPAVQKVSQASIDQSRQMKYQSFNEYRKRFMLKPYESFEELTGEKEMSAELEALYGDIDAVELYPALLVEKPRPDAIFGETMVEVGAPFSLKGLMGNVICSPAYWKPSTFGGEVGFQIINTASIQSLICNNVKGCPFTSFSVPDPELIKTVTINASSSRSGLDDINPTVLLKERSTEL

[4] = lower part of sheet (compound series)
[5] = upper part of sheet (extract series), positive control also given in μM

O=C(O)CC(=O)OC[C@H]1O[C@@H](Oc2c(-c3ccc(O)c(O)c3)oc3cc(O)cc(O)c3c2=O)[C@H](O)[C@@H](O)[C@@H]1O
inhibition of fluorescent AGEs formation (BSA-抗糖化), single replicate ([1]; 15.625 µM): 10.51% and 15.35% and 23.11%
inhibition of fluorescent AGEs formation (BSA-抗糖化), single replicate ([1]; 31.25 µM): 5.08% and 5.86% and 10.67%
inhibition of fluorescent AGEs formation (BSA-抗糖化), 平均 (mean) ([1]; 31.25 µM): 7.20%
inhibition of fluorescent AGEs formation (BSA-抗糖化), single replicate ([1]; 62.5 µM): 17.13% and 15.89% and 16.80%
inhibition of fluorescent AGEs formation (BSA-抗糖化), 平均 (mean) ([1]; 62.5 µM): 16.61%
inhibition of fluorescent AGEs formation (BSA-抗糖化), single replicate ([1]; 125 µM): 26.98% and 29.78% and 30.07%
inhibition of fluorescent AGEs formation (BSA-抗糖化), 平均 (mean) ([1]; 125 µM): 28.94%
inhibition of fluorescent AGEs formation (BSA-抗糖化), single replicate ([1]; 250 µM): 45.50% and 47.09% and 47.76%
inhibition of fluorescent AGEs formation (BSA-抗糖化), 平均 (mean) ([1]; 250 µM): 46.78%
inhibition of fluorescent AGEs formation (BSA-抗糖化), single replicate ([1]; 500 µM): 61.62% and 62.32% and 63.30%
inhibition of fluorescent AGEs formation (BSA-抗糖化), 平均 (mean) ([1]; 500 µM): 62.41%
inhibition of fluorescent AGEs formation (BSA-抗糖化), single replicate ([1]; 1000 µM): 77.56% and 77.94% and 77.85%
inhibition of fluorescent AGEs formation (BSA-抗糖化), 平均 (mean) ([1]; 1000 µM): 77.78%
inhibition of fluorescent AGEs formation (BSA-抗糖化), single replicate ([1]; 2000 µM): 88.53% and 88.63% and 88.83%
inhibition of fluorescent AGEs formation (BSA-抗糖化), 平均 (mean) ([1]; 2000 µM): 88.66%
inhibition of fluorescent AGEs formation (BSA-抗糖化), single replicate ([1]; 4000 µM): 94.35% and 94.74% and 94.79%
inhibition of fluorescent AGEs formation (BSA-抗糖化), 平均 (mean) ([1]; 4000 µM): 94.62%
IC50 ([1]; BSA-抗糖化, mean of 3 replicate IC50, read-out: IC50µM, mean): 288 µM
IC50 ([1]; BSA-抗糖化, per replicate curve, read-out: IC50µM, single replicate): 306 µM and 289 µM and 270 µM

Cc1c(C)c2c(c(C)c1O)CCC(C)(C(=O)O)O2 (centres unmarked) [Trolox, 6-hydroxyl-2,5,7,8-tetra-methylchroman-2-carboxylic acid, reference compound]
标准曲线对应浓度 mM FeSO4 (FRAP, FeSO4 equivalent from standard curve) ([2]; 0.15 mM (37.5 μg/ml)): 0.9597 mM FeSO4 and 0.8823 mM FeSO4 and 0.8550 mM FeSO4
标准曲线对应浓度 mM FeSO4, mean ([2]; 0.15 mM (37.5 μg/ml)): 0.8990 mM FeSO4
标准曲线对应浓度 mM FeSO4 (FRAP, FeSO4 equivalent from standard curve) ([2]; 0.3 mM (75 μg/ml)): 1.6552 mM FeSO4 and 1.6329 mM FeSO4 and 1.5219 mM FeSO4
标准曲线对应浓度 mM FeSO4, mean ([2]; 0.3 mM (75 μg/ml)): 1.6033 mM FeSO4
标准曲线对应浓度 mM FeSO4 (FRAP, FeSO4 equivalent from standard curve) ([2]; 0.6 mM (150 μg/ml)): 3.1630 mM FeSO4 and 2.8987 mM FeSO4 and 2.7627 mM FeSO4
标准曲线对应浓度 mM FeSO4, mean ([2]; 0.6 mM (150 μg/ml)): 2.9415 mM FeSO4
标准曲线对应浓度 mM FeSO4 (FRAP, FeSO4 equivalent from standard curve) ([2]; 0.9 mM (225 μg/ml)): 4.4046 mM FeSO4 and 4.2357 mM FeSO4 and 4.0364 mM FeSO4
标准曲线对应浓度 mM FeSO4, mean ([2]; 0.9 mM (225 μg/ml)): 4.2256 mM FeSO4
标准曲线对应浓度 mM FeSO4 (FRAP, FeSO4 equivalent from standard curve) ([2]; 1.2 mM (300 μg/ml)): 5.8342 mM FeSO4 and 5.5270 mM FeSO4 and 5.3675 mM FeSO4
标准曲线对应浓度 mM FeSO4, mean ([2]; 1.2 mM (300 μg/ml)): 5.5762 mM FeSO4
标准曲线对应浓度 mM FeSO4 (FRAP, FeSO4 equivalent from standard curve) ([2]; 1.5 mM (375 μg/ml)): 6.9332 mM FeSO4 and 6.7909 mM FeSO4 and 6.4969 mM FeSO4
标准曲线对应浓度 mM FeSO4, mean ([2]; 1.5 mM (375 μg/ml)): 6.7403 mM FeSO4
FRAP EC1 [2, 4]: 559.8 ± 19.4 µM
FRAP EC1 ([2]; mean ± SD, n = 3): 559.8 ± 19.4 µM
FRAP EC1 ([2]; upper part of sheet (extract series)): 55.35 ± 5.22 µg/mL
ABTS scavenging rate ([3]; 7.8125 ug/ml, single replicate wells): 8.24% and 9.20% and 7.27%
ABTS scavenging rate ([3]; 15.625 ug/ml, single replicate wells): 16.72% and 19.40% and 19.88%
ABTS scavenging rate ([3]; 31.25 ug/ml, single replicate wells): 61.34% and 52.07% and 52.74%
ABTS scavenging rate ([3]; 62.5 ug/ml, single replicate wells): 94.28% and 95.58% and 92.94%
ABTS scavenging rate ([3]; 125 ug/ml, single replicate wells): 96.25% (2×) and 96.22%
ABTS scavenging rate ([3]; 250 ug/ml, single replicate wells): 96.32% and 96.28% and 96.27%
ABTS scavenging rate ([3]; 0.5mM series, concentration 7.8125 (unit not given), replicate wells): 5.05% and 4.88% and 5.29%
ABTS scavenging rate ([3]; 0.5mM series, concentration 15.625 (unit not given), replicate wells): 12.72% and 13.81% and 12.64%
ABTS scavenging rate ([3]; 0.5mM series, concentration 31.25 (unit not given), replicate wells): 31.58% and 33.31% and 33.45%
ABTS scavenging rate ([3]; 0.5mM series, concentration 62.5 (unit not given), replicate wells): 67.91% and 69.65% and 70.29%
ABTS scavenging rate ([3]; 0.5mM series, concentration 125 (unit not given), replicate wells): 99.61% and 99.52% and 99.85%
ABTS scavenging rate ([3]; 0.5mM series, concentration 250 (unit not given), replicate wells): 99.86% and 99.73% and 99.90%
ABTS scavenging rate ([3]; 0.5mM series, concentration 500 (unit not given), replicate wells): 99.85% and 99.75% and 99.73%
ABTS scavenging rate ([3]; 500 ug/ml, single replicate wells): 96.17% and 96.23% and 96.35%
IC50 ([3]; mean ± SD, n = 3): 145.7 ± 1.22 µM
IC50 [3, 5]: 111 µM
DPPH scavenging (sheet "DPPH"), single replicate (DPPH· scavenging; 15.625 ug/ml): 32.84% and 29.98% and 33.39%
DPPH scavenging (sheet "DPPH"), single replicate (DPPH· scavenging; 31.25 ug/ml): 58.95% and 55.65% and 57.84%
DPPH scavenging (sheet "DPPH"), single replicate (DPPH· scavenging; 62.5 ug/ml): 84.01% and 87.99% and 89.81%
DPPH scavenging (sheet "DPPH"), single replicate (DPPH· scavenging; 125 ug/ml): 89.42% and 88.80% and 89.64%
DPPH scavenging (sheet "DPPH"), single replicate (DPPH· scavenging; 250 ug/ml): 88.55% and 89.46% and 90.81%
DPPH scavenging (sheet "DPPH"), single replicate (DPPH· scavenging; 500 ug/ml): 93.00% and 92.15% and 93.91%
DPPH scavenging (sheet "DPPH"), single replicate (DPPH· scavenging; 1000 ug/ml): 95.26% and 95.19% and 95.32%
IC50 (DPPH· scavenging; mean ± SD, n = 3): 159 ± 4.47 µM
IC50 (DPPH· scavenging; [5]): 98.8 µM

O=c1cc(-c2ccc(O)cc2)oc2c(C3OC(CO)C(O)C(O)C3O)c(O)c(C3OCC(O)C(O)C3O)c(O)c12 (centres unmarked) [compound 14, Vicenin-1]
COX-2 inhibition (COX-2; 31.25 μM, listed as T6, 31.25 µM): -4.26%
COX-2 inhibition (COX-2; 62.5 μM, listed as T6, 62.5 µM): -25.49% and -4.46%
COX-2 inhibition (COX-2; 125 μM, listed as T6, 125 µM): -10.40%
COX-2 inhibition (COX-2; 500 μM, listed as T6, 500 µM): -29.71% and -20.21%
COX-2 inhibition (COX-2; 1000 μM, listed as T6, 1000 µM): -42.43% and -38.19%
FRAP EC1 [2, 4]: >5000 µM
IC50 ([3]; mean ± SD, n = 3): 96.4 ± 2.11 µM
IC50 ([1]; mean ± SD, n = 3, read-out: BSA-glycation IC50): 256 ± 5.44 µM
IC50 (DPPH· scavenging; mean ± SD, n = 3): > 5000 µM
